Results reported in patent US8859601B2, “Substituted benzyl and phenylsulfonyl triazolones, and use thereof” (Bayer Intellectual Property GmbH, priority 2008, dated 2014).

Assays:
human V1a receptor = molecular target: T1, human V1a receptor (Homo sapiens, UniProt P37288); assay: Cellular in vitro assay for determining the vasopressin receptor activity (aequorin luminescence, antagonism of [Arg8]-vasopressin), hV1a; assay type: cell-based; conditions: CHO cell line transfected with the human V1a receptor; agonist [Arg8]-vasopressin
T1 construct: expressed in transfected cells; host or cells: CHO K1 (ATCC), constitutively expressing a modified aequorin
T1 sequence (P37288 whole entry): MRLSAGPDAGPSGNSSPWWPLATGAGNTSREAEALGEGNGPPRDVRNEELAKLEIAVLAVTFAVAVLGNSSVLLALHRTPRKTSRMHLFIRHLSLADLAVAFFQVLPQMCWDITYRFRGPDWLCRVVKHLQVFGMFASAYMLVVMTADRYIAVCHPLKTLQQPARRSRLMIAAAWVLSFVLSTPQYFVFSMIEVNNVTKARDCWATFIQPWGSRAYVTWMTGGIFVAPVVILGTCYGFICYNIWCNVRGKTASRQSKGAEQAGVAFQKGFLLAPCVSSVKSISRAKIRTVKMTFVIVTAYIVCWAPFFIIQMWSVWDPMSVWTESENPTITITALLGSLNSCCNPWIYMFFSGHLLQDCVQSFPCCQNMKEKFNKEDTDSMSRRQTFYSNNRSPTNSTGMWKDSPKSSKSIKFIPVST
Text: (§1) B-1. Cellular In Vitro Assay for Determining the Vasopressin Receptor Activity
(§2) The identification of agonists and antagonists of the V1a and V2 vasopressin receptors from humans and rats and also the quantification of the activity of the substances described here took place using recombinant cell lines. These cells derive originally from a hamster ovary epithelial cell (Chinese Hamster Ovary, CHO K1, ATCC: American Type Culture Collection, Manassas, Va. 20108, USA). The test cell lines constitutively express a modified form of the calcium-sensitive photoprotein aequorin, which, after reconstitution with the cofactor coelenterazine, emits light when there are increases in the free calcium concentration (Rizzuto R., Simpson A. W., Brini M., Pozzan T.; Nature 358 (1992) 325-327). In addition, the cells are stably transfected with the human or rat V1a or V2 receptors. In the case of the Gs-coupling V2 receptors, the cells are stably transfected with a further gene, which codes for the promiscuous Gα16 protein (Amatruda T. T., Steele D. A., Slepak V. Z., Simon M. I., Proc. Nat. Acad. Sci. USA 88 (1991), 5587-5591), either independently or as a fusion gene. The resulting vasopressin receptor test cells react to stimulation of the recombinantly expressed vasopressin receptors by intracellular release of calcium ions, which can be quantified by the resulting aequorin luminescence using a suitable luminometer (Milligan G., Marshall F., Rees S., Trends in Pharmaco. Sci. 17 (1996) 235-237).
(§3) On the day before the assay, the cells are plated out in culture medium (DMEM, 10% FCS, 2 mM glutamine, 10 mM HEPES) in 384-well microtiter plates and kept in a cell incubator (96% humidity, 5% v/v carbon dioxide, 37° C.). On the day of the assay, the culture medium is replaced by a Tyrode solution (140 mM sodium chloride, 5 mM potassium chloride, 1 mM magnesium chloride, 2 mM calcium chloride, 20 mM glucose, 20 mM HEPES), which additionally contains the cofactor coelenterazine (50 μM), and the microtiter plate is then incubated for a further 3-4 hours. The test substances in various concentrations are placed for 10 to 20 minutes in the wells of the microtiter plate before the agonist [Arg8]-vasopressin is added, and the resulting light signal is measured immediately in the luminometer. The IC50 values are calculated using the GraphPad PRISM computer program (Version 3.02).
(§4) The table below lists representative IC50 values for the compounds of the invention on the cell line transfected with the human V1a or V2 receptor: […]

human V2 receptor = molecular target: T2, human V2 receptor (Homo sapiens, UniProt P30518); assay: Cellular in vitro assay for determining the vasopressin receptor activity (aequorin luminescence, antagonism of [Arg8]-vasopressin), hV2; assay type: cell-based; conditions: CHO cell line transfected with the human V2 receptor (and Gα16); agonist [Arg8]-vasopressin
T2 construct: Gα16 (possible fusion partner; the text leaves open whether it was fused or expressed separately); expressed in transfected cells; host or cells: CHO K1 (ATCC), constitutively expressing a modified aequorin and co-transfected with Gα16
T2 sequence (P30518 whole entry, the tested form may be a part): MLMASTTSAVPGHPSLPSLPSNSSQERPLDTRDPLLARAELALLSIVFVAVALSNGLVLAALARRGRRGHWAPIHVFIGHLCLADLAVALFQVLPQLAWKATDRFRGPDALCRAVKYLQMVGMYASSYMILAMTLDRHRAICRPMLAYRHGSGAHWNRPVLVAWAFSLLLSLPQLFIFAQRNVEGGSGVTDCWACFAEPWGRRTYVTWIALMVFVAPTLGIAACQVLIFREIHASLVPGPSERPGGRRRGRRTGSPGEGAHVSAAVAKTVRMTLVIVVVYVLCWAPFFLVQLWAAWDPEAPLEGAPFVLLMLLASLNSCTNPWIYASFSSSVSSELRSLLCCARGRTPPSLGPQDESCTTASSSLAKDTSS
Text: as §1, §2, §3, §4

SMILES | IC50 (human V1a receptor) [µM] | IC50 (human V2 receptor) [nM]
C=CCn1c(-c2ccc(Cl)cc2)nn(S(=O)(=O)c2ccc(C(=O)NC(C)(C)C)cc2OC)c1=O [Example 1, N-tert-Butyl-4-{[3-(4-chlorophenyl)-5-oxo-4-prop-2-en-1-yl-4,5-dihydro-1H-1,2,4-triazol-1-yl]sulphonyl}-3-methoxybenzenecarboxamide] | 5.5 | 3
COc1cc(C(=O)NC(C)(C)C)ccc1S(=O)(=O)n1nc(OC(C)C)n(C2CC2)c1=O [Example 3] | > 25 | 13
COc1ccc(C(C)=O)cc1S(=O)(=O)n1nc(-c2ccc(Cl)cc2)n(C2CC2)c1=O [Example 13] | 3.5 | 290
COc1cc(C(=O)NC(C)(C)C)ccc1S(=O)(=O)n1nc(N(C)C)n(C2CC2)c1=O [Example 7] | > 25 | 7
COc1cc(C(=O)NC(C)(C)C)ccc1S(=O)(=O)n1nc(-c2ccc(Cl)cc2)n(C2CC2)c1=O [Example 2] | 3.7 | 3

Results, then the molecule that gave them:

IC50 (human V1a receptor) [µM] | IC50 (human V2 receptor) [nM] | SMILES
4.2 | 27 | CC(C)(C)NC(=O)c1ccc(Cn2nc(-c3ccc(Cl)cc3)n(C3CC3)c2=O)c(Cl)c1 [Example 27, N-tert-Butyl-3-chloro-4-{[3-(4-chlorophenyl)-4-cyclopropyl-5-oxo-4,5-dihydro-1H-1,2,4-triazol-1-yl]methyl}benzamide]
> 25 | 9 | COc1cc(C(=O)NC(C)(C)C)ccc1S(=O)(=O)n1nc(-c2ccc(Cl)cc2)[nH]c1=O [Example 14, N-tert-Butyl-4-{[3-(4-chlorophenyl)-5-oxo-4,5-dihydro-1H-1,2,4-triazol-1-yl]sulphonyl}-3-methoxybenzenecarboxamide]
15.2 | 4 | COc1cc(C(=O)NC(C)(C)C)ccc1Cn1nc(-c2ccc(Cl)cc2)n(C2CC2)c1=O [Example 20, N-tert-Butyl-4-{[3-(4-chlorophenyl)-4-cyclopropyl-5-oxo-4,5-dihydro-1H-1,2,4-triazol-1-yl]methyl}-3-methoxybenzenecarboxamide]
0.87 | 220 | COc1cc(Cn2nc(-c3ccc(Cl)cc3)n(C3CC3)c2=O)ccc1C(=O)NC(C)(C)C [Example 22, N-tert-Butyl-4-{[3-(4-chlorophenyl)-4-cyclopropyl-5-oxo-4,5-dihydro-1H-1,2,4-triazol-1-yl]methyl}-2-methoxybenzamide]
7.1 | 4 | CC(C)(C)NC(=O)c1ccc(S(=O)(=O)n2nc(-c3ccc(Cl)cc3)n(C3CC3)c2=O)cc1 [Example 17, N-tert-Butyl-4-{[3-(4-chlorophenyl)-4-cyclopropyl-5-oxo-4,5-dihydro-1H-1,2,4-triazol-1-yl]sulphonyl}benzenecarboxamide]
